Measurements reported in patent US8101171B2, “Modulators of the development of mychorrizal fungi with arbuscules, and uses thereof” (priority 2004, dated 2012).
Marks after values point to notes of the source that are not given here.

Columns and labels:
Gigaspora rosea spores [1] = test: Stimulation of the branching of the hyphae of Gigaspora rosea by GR24 (newly formed apexes); format: cell-based
Description: The stimulated branching of the hyphae (appearance of new apexes) is the test currently employed to evaluate the stimulating activity of various effectors on endomycorrhizal fungi of the genus Gigaspora. This phenomenon occurs naturally close to the roots of host plants, as well as under the action of root exudates, and is considered to be a preparatory phase to the establishment of symbiosis (Buée et al., Molecular Plant-Microbe Interaction, 2000, 13:693-698). This increase in branching is the result of stimulation of the fungus metabolism and leads to an increase in the points of contact between the fungus and the roots of the plant. Any increase in the branching of the hyphae of the fungus increases mycorrhization.
Measurements of branching (expressed as the number of apexes appearing after stimulation) of the germinative tubes of Gigaspora rosea were carried out in the presence of various concentrations of GR24.
To that end, Gigaspora rosea spores are germinated in gelosed medium M (medium M containing 0.4% (w/v) Phytagel®—SIGMA, France) for 5 days at 30° C. and in an atmosphere enriched with 2% CO2. 10 μl of test agents (in concentrations varying from 10^−8 to 10^−15 M) in solution in 50% methanol are then added to the medium by introduction into a well hollowed out in the gelose.
The controls receive the solvent for the test molecules (10 μl of 50% methanol) under the same conditions.
48 hours after treatment, the apexes formed above the stimulation zone are counted. Two series of experiments with GR24, at different concentrations, were carried out.

[2] = test system: Glomus intraradices spores; test: Polarographic measurement of oxygen consumption (cell respiration) of germinating Glomus intraradices spores; format: cell-based; conditions: GR24 0.3 μM final
Procedure: Polarographic measurements of oxygen consumption were carried out on Glomus intraradices spores in germination, in the presence or absence of GR24.
400 spores in 1 ml of medium M are used per test.
In order to stimulate the spores, there are added to each test 10 μl of a 30 μM solution of GR24 in acetone (1%), namely a final concentration of GR24 of 0.3 μM. The controls receive 10 μl of acetone (1%).
The oxygen consumption is measured using an oxygen electrode, known as a Clark electrode (Hansatech Ltd, Hardwick Industrial, Norfolk, United Kingdom), inserted into a Plexiglass chamber. The oxygen electrode is connected to a recorder calibrated between 0 and 100% with atmospheric oxygen.
The spores are introduced into the chamber, and the temperature is maintained at 30° C. by means of a circulating water bath. The rates of oxygen consumption are read directly from the recorder. The measurements of oxygen consumption are carried out over 15 minutes, after 4 hours' stimulation (series 1) and after 5½ hours' stimulation (series 2).
Two independent series of experiments were carried out. For each, the recorded values correspond to the average of 3 tests.
The increase in oxygen consumption is expressed as a percentage relative to that of the control, treated with acetone.

Gigaspora rosea spores [3] = test: Stimulation of hypha branching and elongation of Gigaspora rosea by GR7; format: cell-based
Procedure: Gigaspora rosea spores are germinated in gelosed medium M for 5 days at 30° C. and in an atmosphere enriched with 2% CO2. 10 μl of test agent solution are then added to the medium by introduction into a well hollowed out in the gelose, starting from a solution having a concentration of test agent varying from 10^−5 to 10^−11 M. The controls receive only the solvent for the test agents (10 μl of 50% methanol) under the same conditions.
The apexes formed are counted after 48 hours' treatment. In addition, the elongation activity is evaluated by measuring the number of cm formed before and after treatment. Two series of experiments, with different concentrations of GR7, were carried out.

Gigaspora rosea = test: Oxygraph measurement of cell respiration of Gigaspora rosea; format: cell-based; conditions: for % stimulation (respiration, average of 3 tests): GR7 0.1 μM final
[4] = test system: Medicago truncatula / Gigaspora rosea; test: In vitro mycorrhization of Medicago truncatula by Gigaspora rosea (points of contact between fungus and roots); format: in vivo; conditions: GR7 0.1 μM in medium M, 3 weeks, 8 plants; control (methanol) 2.2; P = 0.02 Mann-Whitney
Procedure: Measurements of the number of points of contact established between the fungus and the roots during in vitro mycorrhization experiments were carried out. Medicago truncatula plants were cultivated in vitro in the presence of Gigaspora rosea spores, on medium M enriched with GR7.
For the tests, medium M prepared as above is enriched with GR7 to give a final concentration of 0.1 μM. The controls are carried out with medium M to which methanol is added to give a final concentration of 0.1%. The medium is poured into square Petri dishes (100×100). Three control dishes and three test dishes are prepared. The Gigaspora rosea spores are pre-germinated in those dishes (25 per dish) in an oven at 30° C., with 2% CO2, for 6 days. The Medicago truncatula seeds are sterilized with Javel water at 8 degrees chlorimetric for 5 minutes. After rinsing with sterile distilled water, they are germinated on a medium composed of bacteriological agar with 1 μM gibberellin. After 24 hours at 4° C., they are transferred into a chamber at 25° C. for 24 hours. Eighteen plantlets so prepared are then distributed randomly in the six experimental dishes containing the spores in the process of germinating. […]
The number of points of contact established between the fungus and the roots is counted plant by plant after observation under a microscope.

[5] = Series 1: after 4 hours' stimulation
[6] = Series 2: after 5½ hours' stimulation
[7] = GR7 10^−5 M, Series 1, relative to control
[8] = GR7 10^−5 M, Series 2, relative to control
[9] = GR7 10^−7 M, Series 1, relative to control
[10] = GR7 10^−7 M, Series 2, relative to control
[11] = GR7 10^−9 M, Series 1, relative to control
[12] = GR7 10^−9 M, Series 2, relative to control
[13] = GR7 10^−11 M, Series 1, relative to control
[14] = GR7 10^−11 M, Series 2, relative to control

CC1=CC(O/C=C2/C(=O)OC3c4ccccc4CC23)OC1=O (stereo not drawn) [GR24]
Apex/spore (Gigaspora rosea spores [1]; GR24 10^−8 M, Series 1, 48 hours after treatment): 16.3
Number of newly formed apexes (Gigaspora rosea spores [1]; GR24 10^−8 M, Series 1, 48 hours after treatment, 4 spores): 65
Stimulation factor (Gigaspora rosea spores [1]; GR24 10^−8 M, Series 1, relative to control): 5.4
Apex/spore (Gigaspora rosea spores [1]; GR24 10^−8 M, Series 2, 48 hours after treatment): 14.0
Number of newly formed apexes (Gigaspora rosea spores [1]; GR24 10^−8 M, Series 2, 48 hours after treatment, 1 spore): 14
Stimulation factor (Gigaspora rosea spores [1]; GR24 10^−8 M, Series 2, relative to control): 4.0
Apex/spore (Gigaspora rosea spores [1]; GR24 10^−10 M, Series 1, 48 hours after treatment): 15.0
Number of newly formed apexes (Gigaspora rosea spores [1]; GR24 10^−10 M, Series 1, 48 hours after treatment, 3 spores): 45
Stimulation factor (Gigaspora rosea spores [1]; GR24 10^−10 M, Series 1, relative to control): 5.0
Apex/spore (Gigaspora rosea spores [1]; GR24 10^−10 M, Series 2, 48 hours after treatment): 13.3
Number of newly formed apexes (Gigaspora rosea spores [1]; GR24 10^−10 M, Series 2, 48 hours after treatment, 3 spores): 40
Stimulation factor (Gigaspora rosea spores [1]; GR24 10^−10 M, Series 2, relative to control): 3.8
Apex/spore (Gigaspora rosea spores [1]; GR24 10^−12 M, Series 1, 48 hours after treatment): 9.0
Number of newly formed apexes (Gigaspora rosea spores [1]; GR24 10^−12 M, Series 1, 48 hours after treatment, 4 spores): 36
Stimulation factor (Gigaspora rosea spores [1]; GR24 10^−12 M, Series 1, relative to control): 3.0
Apex/spore (Gigaspora rosea spores [1]; GR24 10^−12 M, Series 2, 48 hours after treatment): 8.5
Number of newly formed apexes (Gigaspora rosea spores [1]; GR24 10^−12 M, Series 2, 48 hours after treatment, 4 spores): 34
Stimulation factor (Gigaspora rosea spores [1]; GR24 10^−12 M, Series 2, relative to control): 2.4
Apex/spore (Gigaspora rosea spores [1]; GR24 10^−15 M, Series 1, 48 hours after treatment): 3.8
Number of newly formed apexes (Gigaspora rosea spores [1]; GR24 10^−15 M, Series 1, 48 hours after treatment, 4 spores): 15
Stimulation factor (Gigaspora rosea spores [1]; GR24 10^−15 M, Series 1, relative to control): 1.3
Apex/spore (Gigaspora rosea spores [1]; GR24 10^−15 M, Series 2, 48 hours after treatment): 8.5
Number of newly formed apexes (Gigaspora rosea spores [1]; GR24 10^−15 M, Series 2, 48 hours after treatment, 2 spores): 17
Stimulation factor (Gigaspora rosea spores [1]; GR24 10^−15 M, Series 2, relative to control): 2.4
Stimulating effect on branching (Gigaspora rosea spores [1]; doses lower than picomolar): a clear stimulating effect is still observed
Stimulation of branching (factor) (Gigaspora rosea spores [1]; submicromolar doses of GR24): 5
% stimulation (increase in oxygen consumption relative to control, average of 3 tests) [2, 5]: 29.0%
% stimulation (increase in oxygen consumption relative to control, average of 3 tests) [2, 6]: 76.6%

CC1=CC(O/C=C2/C(=O)OC3CC=CC23)OC1=O (stereo not drawn) [GR7]
cm newly formed/spore (Gigaspora rosea spores [3]; GR7 10^−5 M, Series 1): 4.88 cm
Number of newly formed apexes (Gigaspora rosea spores [3]; GR7 10^−5 M, Series 1, after 48 hours' treatment): 9.3
Branching stimulation ratio (Gigaspora rosea spores [3]; [7]): 5.31
Growth stimulation ratio (Gigaspora rosea spores [3]; [7]): 4.44
cm newly formed/spore (Gigaspora rosea spores [3]; GR7 10^−5 M, Series 2): 6.5 cm
Number of newly formed apexes (Gigaspora rosea spores [3]; GR7 10^−5 M, Series 2, after 48 hours' treatment): 14.25
Branching stimulation ratio (Gigaspora rosea spores [3]; [8]): 6.59
Growth stimulation ratio (Gigaspora rosea spores [3]; [8]): 2.60
cm newly formed/spore (Gigaspora rosea spores [3]; GR7 10^−7 M, Series 1): 4.65 cm
Number of newly formed apexes (Gigaspora rosea spores [3]; GR7 10^−7 M, Series 1, after 48 hours' treatment): 8.75
Branching stimulation ratio (Gigaspora rosea spores [3]; [9]): 5
Growth stimulation ratio (Gigaspora rosea spores [3]; [9]): 4.23
cm newly formed/spore (Gigaspora rosea spores [3]; GR7 10^−7 M, Series 2): 5.09 cm
Number of newly formed apexes (Gigaspora rosea spores [3]; GR7 10^−7 M, Series 2, after 48 hours' treatment): 10.42
Branching stimulation ratio (Gigaspora rosea spores [3]; [10]): 4.82
Growth stimulation ratio (Gigaspora rosea spores [3]; [10]): 2.04
cm newly formed/spore (Gigaspora rosea spores [3]; GR7 10^−9 M, Series 1): 2.62 cm
Number of newly formed apexes (Gigaspora rosea spores [3]; GR7 10^−9 M, Series 1, after 48 hours' treatment): 8
Branching stimulation ratio (Gigaspora rosea spores [3]; [11]): 4.57
Growth stimulation ratio (Gigaspora rosea spores [3]; [11]): 2.38
cm newly formed/spore (Gigaspora rosea spores [3]; GR7 10^−9 M, Series 2): 4.99 cm
Number of newly formed apexes (Gigaspora rosea spores [3]; GR7 10^−9 M, Series 2, after 48 hours' treatment): 6.16
Branching stimulation ratio (Gigaspora rosea spores [3]; [12]): 2.85
Growth stimulation ratio (Gigaspora rosea spores [3]; [12]): 2.00
cm newly formed/spore (Gigaspora rosea spores [3]; GR7 10^−11 M, Series 1): 2.65 cm
Number of newly formed apexes (Gigaspora rosea spores [3]; GR7 10^−11 M, Series 1, after 48 hours' treatment): 5.16
Branching stimulation ratio (Gigaspora rosea spores [3]; [13]): 2.94
Growth stimulation ratio (Gigaspora rosea spores [3]; [13]): 2.41
cm newly formed/spore (Gigaspora rosea spores [3]; GR7 10^−11 M, Series 2): 2.23 cm
Number of newly formed apexes (Gigaspora rosea spores [3]; GR7 10^−11 M, Series 2, after 48 hours' treatment): 2.66
Branching stimulation ratio (Gigaspora rosea spores [3]; [14]): 1.23
Growth stimulation ratio (Gigaspora rosea spores [3]; [14]): 0.89
Activity on branching (number of newly formed apexes) (Gigaspora rosea spores [3]; doses of the nanomolar order): significantly active
Activity on cell elongation (Gigaspora rosea spores [3]; doses of the nanomolar order): significantly active
% stimulation (respiration, average of 3 tests) (Gigaspora rosea; [5]): 24.0%
% stimulation (respiration, average of 3 tests) (Gigaspora rosea; [6]): 33.6%
Activity on the respiration of Gigaspora rosea (Gigaspora rosea; final concentration 0.1 μM, after 5 hours' stimulation): active
Average points of contact (fungus-roots, per plant) [4]: 7.75*
